Measurements reported in paper PMC4598324, “Crystal structures of Bbp from Staphylococcus aureus reveal the ligand binding mechanism with Fibrinogen α” (Protein & Cell, 2015).
Where no end group is shown, it is not given here.

How the values were obtained:
[1] = molecular target: Bone sialoprotein-binding protein (Bbp) residues 273-598 (N2 and N3 domains) (S. aureus) (UniProt Q14U76); assay: ITC; 500 μmol/L peptide in the syringe titrated into 50 μmol/L Bbp^273−598 in the cell; 25°C; 200 mmol/L NaCl, 20 mmol/L HEPES pH 7.5; Microcal iTC200
[2] = molecular target: T1, Bbp^273−598 (Staphylococcus aureus, UniProt Q14U76); assay: Isothermal titration calorimetry (ITC), Fg α^561−575 titrated into Bbp^273−598; assay type: binding; details: 25°C, Microcal iTC200, cell 50 μmol/L Bbp^273−598, syringe 500 μmol/L peptide, 200 mmol/L NaCl, 20 mmol/L HEPES pH 7.5, first peak not used for analysis
T1 construct: covering residues Asn^273–Pro^598 of Bbp from S. aureus; GST (cleaved; GPLGS remains at the N-terminus) (N, cleaved yes); made in house; host or cells: Escherichia coli BL21
T1 sequence (Q14U76 273-598): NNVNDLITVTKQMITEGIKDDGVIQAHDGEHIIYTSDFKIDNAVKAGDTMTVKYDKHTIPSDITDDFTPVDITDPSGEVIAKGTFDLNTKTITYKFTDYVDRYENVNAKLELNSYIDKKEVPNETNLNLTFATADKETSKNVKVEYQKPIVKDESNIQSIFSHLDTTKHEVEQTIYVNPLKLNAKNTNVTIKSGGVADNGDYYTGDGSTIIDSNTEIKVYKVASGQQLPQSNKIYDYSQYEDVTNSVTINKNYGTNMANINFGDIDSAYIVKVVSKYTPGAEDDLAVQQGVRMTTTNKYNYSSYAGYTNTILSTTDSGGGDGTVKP
Source text: (§1) The fragment of the Bbp gene (corresponding to 273–598 aa) was amplified using S. aureus ATCC 25923 genomic DNA by PCR. The gene fragments of mutated proteins Bbp^T582A and Bbp^L584A followed the same protocol. After digestion with BamHI and XhoI (NEB), the amplified fragments were cloned into the prokaryotic expression vector pGEX-6p-1 (GE Healthcare Life Sciences) to produce the GST-Bbp fusion protein and were confirmed by DNA sequencing. The recombinant protein was expressed in Escherichia coli strain BL21 with a high yield.
The recombinant protein was firstly purified by GST-affinity column and digested with PreScission protease overnight. The eluant was collected and concentrated for further purification using gel filtration chromatography (Superdex-200 column, GE Healthcare) in buffer containing 20 mmol/L HEPES pH 7.5, 200 mmol/L NaCl, 2 mmol/L DTT on the FPLC system (GE Healthcare Life Sciences). The proteins in every step of purification were analyzed by SDS-PAGE.
(§2) The peptide corresponding to the fibrinogen α^561−575 was synthesized as previously described (Vazquez et al., [2011]).
ITC experiments were carried out at 25°C using a Microcal iTC200 instrument (GE Healthcare). […] The data were fitted and analyzed using the Origin 7 software package (Microcal).

[3] = molecular target: T2, Bbp^T582A (Staphylococcus aureus, UniProt Q14U76, T582A); assay: Surface plasmon resonance (SPR), immobilized mutant T582A; details: BIAcore T200, T582A mutant immobilized on CM5 chip (3375RU), peptide 62.5 to 0.976 μmol/L in 200 mmol/L NaCl, 20 mmol/L HEPES (pH 7.5), 30 μL/min, binding 60 s, dissociation 120 s
T2 construct: The fragment of the Bbp gene (corresponding to 273–598 aa) was amplified; GST (pGEX-6p-1) (N); made in house; host or cells: Escherichia coli BL21
T2 sequence (Q14U76 273-598 T582A): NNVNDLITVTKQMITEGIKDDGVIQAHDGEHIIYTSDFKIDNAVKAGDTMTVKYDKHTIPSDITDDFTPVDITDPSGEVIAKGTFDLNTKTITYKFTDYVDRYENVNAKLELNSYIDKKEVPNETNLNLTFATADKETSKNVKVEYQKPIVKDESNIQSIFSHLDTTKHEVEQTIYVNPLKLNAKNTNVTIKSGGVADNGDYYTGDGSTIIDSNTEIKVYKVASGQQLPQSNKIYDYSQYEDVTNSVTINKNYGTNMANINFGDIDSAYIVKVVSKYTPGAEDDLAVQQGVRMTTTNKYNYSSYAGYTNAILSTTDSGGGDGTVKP
Source text: (§3) Figure 5 SPR analyses of the interactions between Bbp ^273−598 WT and mutants (T582A and L584A) and the Fg α ^561−575 (A–C), respectively. The proteins were immobilized on a BIA-core sensor chip.
as §1, §2
(§4) The interaction affinities between Fg α^561−575 and Bbp^273−598 protein were conducted by surface plasmon resonance (SPR) using BIAcore T200 instrument (GE Healthcare). The wild type Bbp^273−598 protein and two mutants were immobilized, respectively, on a CM5 sensor chip in 10 mmol/L sodium acetate, pH 4.5. The immobilization level was 3375RU. The synthetic peptide in 200 mmol/L NaCl and 20 mmol/L HEPES (pH 7.5) was injected on the protein-coated surface at various concentrations at 30 μL/min. The binding and dissociation was 60 s and 120 s, respectively.

[4] = molecular target: T3, Bbp^L584A (Staphylococcus aureus, UniProt Q14U76, L584A); assay: Surface plasmon resonance (SPR), immobilized mutant L584A; details: BIAcore T200, L584A mutant immobilized on CM5 chip (3375RU), peptide 62.5 to 0.976 μmol/L in 200 mmol/L NaCl, 20 mmol/L HEPES (pH 7.5), 30 μL/min, binding 60 s, dissociation 120 s
T3 construct: The fragment of the Bbp gene (corresponding to 273–598 aa) was amplified; GST (pGEX-6p-1) (N); made in house; host or cells: Escherichia coli BL21
T3 sequence (Q14U76 273-598 L584A): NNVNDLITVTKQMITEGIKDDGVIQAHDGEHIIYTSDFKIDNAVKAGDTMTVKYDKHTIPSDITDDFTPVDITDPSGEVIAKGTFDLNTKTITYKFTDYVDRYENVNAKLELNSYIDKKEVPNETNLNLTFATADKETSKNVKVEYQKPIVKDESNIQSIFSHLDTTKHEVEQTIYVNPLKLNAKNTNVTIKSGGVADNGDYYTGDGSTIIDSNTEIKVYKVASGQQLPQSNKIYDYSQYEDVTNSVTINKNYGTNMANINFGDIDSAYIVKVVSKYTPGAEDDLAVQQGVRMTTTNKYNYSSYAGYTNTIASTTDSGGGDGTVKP
Source text: as §3, §1, §2, §4

[5] = molecular target: T4, Bone sialoprotein-binding protein (Bbp) residues 273-598 (N2 and N3 domains) (S. aureus, UniProt Q14U76 273-598); assay: SPR
T4 chain: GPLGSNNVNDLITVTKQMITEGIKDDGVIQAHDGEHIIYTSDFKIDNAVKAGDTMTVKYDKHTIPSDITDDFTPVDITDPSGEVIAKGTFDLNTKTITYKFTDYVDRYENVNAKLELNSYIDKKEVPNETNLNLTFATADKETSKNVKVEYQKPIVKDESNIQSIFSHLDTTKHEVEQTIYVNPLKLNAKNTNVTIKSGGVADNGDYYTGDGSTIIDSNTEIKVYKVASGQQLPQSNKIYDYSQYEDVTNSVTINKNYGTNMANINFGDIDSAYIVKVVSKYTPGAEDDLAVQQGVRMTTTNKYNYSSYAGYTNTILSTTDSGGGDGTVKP

Fibrinogen α chain peptide, residues 561-575
Kd [1]: 290 nM

SKQFTSSTSYNRGDS [Fg α^561−575]
Kd [2]: 290 nM | Kd [3]: 537 nM | Kd [4]: 456 nM

SKQFTSSTSYNRGDS [Fibrinogen α chain peptide, residues 561-575]
Kd [5]: 1620 nM
